According to patent US20060210479A1 (Dow Global Technologies Inc., priority 2004, published 2006):
Like-named read-outs stand apart in the source and are kept apart here.

Tests used:
[1] = test system: cancer cells (LNCaP, Caco-2, T84); assay: Chelate permeability and specificity, cancer cells versus normal cells (summary); format: cell-based, human; details: cancer cells
[2] = test system: etoposide-induced (apoptotic) HEK293 cells; assay: Permeability of chelates to apoptotic cells, fluorescence of fractions; format: cell-based, human
Method: (§1) The human kidney transformed HEK293 cells (obtained from the ATCC) were grown in Eagle's Minimum Essential Medium (EMEM) supplemented with 10% (v/v) heat-inactivated fetal bovine serum, sodium pyruvate, nonessential amino acids and antibiotics in a humidified 5% CO2 atmosphere at 37° C. Medium and supplements were purchased from Gibco bRL (Grand Island, N.Y.). Etoposide was obtained from Sigma (St. Louis, Mo.) and prepared as 20 mM solution in dimethyl sulfoxide (DMSO). For treatments, etoposide was applied to the HEK293 cultures at 1:1000 dilution (final concentration of 20 μM) after cell became 75% confluent. As a control, cells were fed with medium containing 0.1% DMSO in the absence of etoposide. After treatment with etoposide, cells were incubated in a humidified 5% CO2 at 37° C. for 24 hours. HEK293 cells were collected by removing treatment medium and washed 2 times with 10 mM HEPES buffer. Final cell pellets were resuspended in a small amount of HEPES and stored at 4° C. for further study.
(§2) Cells were grown to confluence in T-150 flasks (about 2×10^6 cells). […] After treatment, the chelate or analogue supernatant was discarded and the cells were rinsed three times at room temperature with 10 mM HEPES. Cells were then removed from the flask by manual scraping. Cells were transferred to a 50-mL conical tube and centrifuged (400×g) for 5 minutes and the test material removed. Remaining cells were rinsed twice with cold 10 mM HEPES. Cells were used in cell binding assays.

[3] = test system: HEK293 cells, normal (non-induced); assay: Permeability of chelates to HEK293 cells, fluorescence of fractions; format: cell-based, human; details: HEK293 Normal; 1 mM chelate, 2 hours
Method: as §1, §2

LNCaP cell line = assay: Chelate permeability: fluorescence of cytoplasm and membrane fractions; format: cell-based, human
[4] = test system: DMBA-induced tumor tissue of buccal cheek pouch; details: 2 mM solution topical, 10 minutes; for Fluorescence/mg Cytoplasm / Fluorescence/mg Membrane: readings Adjusted Volume CNT*mm2
[5] = test system: PZ-HPV-7 normal cell line; assay: Chelate permeability: fluorescence of cytoplasm and membrane fractions; format: cell-based; details: PZ-HPV-7
[6] = test system: normal cheek pouch tissue; details: 2 mM solution topical, 10 minutes, readings Adjusted Volume CNT*mm2
T84 cell line = assay: Chelate permeability: fluorescence of cytoplasm and membrane fractions; format: cell-based, human; details: 1 mM chelate, 2 h, Table 1
Caco-2 cell line = assay: as above; format: cell-based, human
RBL-2H3 cell line = assay: as above; format: cell-based, rat; details: 0-2000 μM, 2 hours
Method: Tb-PCTMB (Tb(III) 3,6,9-tris(methylene phosphonic acid n-butyl ester)-3,6,9,15-tetraazabicyclo[9.3.1]pentadeca-1(15),11,13-triene) was tested for permeability to abnormal and disease-state cells.
RBL-2H3 is a rat basophilic leukemia cell line. These cells were grown in Iscove's Medium supplemented with 2 mM L-glutamnine, penicillin/streptomycin (100 IU/mL, 100 μg/mL) and 10% FBS. Cells were maintained at 5% CO2 and 95% humidity. PZ-HPV-7 cell line was derived from epithelial cells cultured from normal prostate tissue. They were grown in Keratinocyte-Serum Free Medium with human recombinant EGF and bovine pituitary extract supplemented with 50 μg/mL gentamicin and penicillin/streptomycin (100 IU/mL, 100 μg/mL). All media and supplements were purchased from Gibco BRL (Grand Island, N.Y., USA). All cell lines were obtained from ATCC and were maintained at 37° C., 5% CO2 and 95% humidity.
Cells were grown to confluence in T-150 flasks (about 2×10^6 cells). […] Cells were then removed from the flask by manual scraping. Cells were transferred to a 50-mL conical tube and centrifuged (400×g) for 5 minutes and the test material removed.
Cells were grown as described herein (Example 1). Cells were grown to confluence in T-150 flask (about 2×10^6 cells). […] Cells were then removed from the flask by manual scraping. Cells were transferred to a 50-mL conical tube and centrifuged (400×g) for 5 minutes and the test material removed.
Furthermore, one analogue, QCTMP (FIG. 26), having lesser lipophilic character (a free phosphonic acid moiety) was evaluated. […] In this study, the cytoplasm and membrane fractions were extracted by Mem-PER Eukaryotic Membrane Protein Extraction Reagent Kit as described by the manufacturers (Pierce Biotechnology, Rockford, Ill.) and analyzed by a Fluor-S Multilmager.

[7] = test system: cancer cell lines (LNCaP, T84, Caco-2, RBL-2H3) and healthy control cells
HSPC194 = HSPC194 (Homo sapiens, UniProt Q9P0S9); details: LNCaP, T84, Caco-2, RBL-2H3; 2 hours
HSPC194, sequence (Q9P0S9 whole entry): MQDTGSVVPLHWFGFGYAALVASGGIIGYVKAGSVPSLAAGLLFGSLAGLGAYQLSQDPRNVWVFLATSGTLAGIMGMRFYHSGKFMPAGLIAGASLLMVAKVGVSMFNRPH
Method: Cell samples were lysed in parallel by sonication or by lysis in hypotonic buffer. Cell fractions were collected from discontinuous sucrose gradients and from separate Percoll gradients, after ultracentrifugation.
Following fractionation, each sample was lyophilized to enrich the sample.
The resulting tryptic peptides were analyzed directly by mass spectrometry. Peptide mass fingerprints were generated for the identification of the protein, and MALDI-PSD was used to sequence Fragments T3, T4, T5, and T6. The resulting data were used to search GenBank for a human protein having or a nucleic acid encoding, an amino acid sequence matching this set of peptides.

[8] = 0-2000 μM, 2 hours, compared to PZ-HPV-7

CCCCOP(=O)([O-])CN1CCN(CP(=O)([O-])OCCCC)Cc2cccc(n2)CN(CP(=O)([O-])OCCCC)CC1.[Tb+3] [Tb-PCTMB, Tb(III) 3,6,9-tris(methylenephosphonic acid n-butyl ester)-3,6,9,15-tetraazabicyclo[9.3.1]pentadeca-1(15),11,13-triene]
permeability to cell membranes [1]: permeable to cancer cell membranes
permeability to apoptotic induced HEK293 cells [2]: permeable
Fluorescence/mg Membrane ([2]; HEK293 Apoptotic (etoposide 20 μM, 24 hours), 1 mM chelate, 2 hours): 949
Fluorescence/mg Membrane [3]: 925
fluorescence in the cytoplasm, dose response (LNCaP cell line; [8]): significant increases in fluorescence
Fluorescence/mg Cytoplasm (LNCaP cell line; 1 mM chelate, 2 h, Table 1): 616.8
Fluorescence/mg Membrane (LNCaP cell line; 1 mM chelate, 2 h, Table 1): 448.9
fluorescence in the cytoplasm of tumor tissue compared to normal tissue [4]: significantly greater fluorescence
Fluorescence/mg Cytoplasm ([4]; Tumor 1): 3014
Fluorescence/mg Membrane ([4]; Tumor 1): 1331
Fluorescence/mg Cytoplasm ([4]; Tumor 2): 3064
Fluorescence/mg Membrane ([4]; Tumor 2): 1484
detectability in normal cells [5]: significantly less detectable
Fluorescence/mg Cytoplasm ([6]; Normal 1): 1138
Fluorescence/mg Membrane ([6]; Normal 1): 1126
Fluorescence/mg Cytoplasm ([6]; Normal 2): 1117
Fluorescence/mg Membrane ([6]; Normal 2): 1125
Fluorescence/mg Cytoplasm (T84 cell line): 476.4
Fluorescence/mg Membrane (T84 cell line): 355.5
fluorescence in the membrane fractions, dose response (Caco-2 cell line; 0-2000 μM, 2 hours): detectable quantity of fluorescence
fluorescence in the cytoplasm, dose response (Caco-2 cell line; [8]): significant increases in fluorescence
Fluorescence/mg Cytoplasm (Caco-2 cell line; 1 mM chelate, 2 h, Table 1): 481.6
Fluorescence/mg Membrane (Caco-2 cell line; 1 mM chelate, 2 h, Table 1): 398.6
fluorescence in the membrane fractions, dose response (RBL-2H3 cell line): detectable quantity of fluorescence
fluorescence in the cytoplasm, dose response (RBL-2H3 cell line; compared to PZ-HPV-7): significant increases in fluorescence
localization in cancer cell lines, confocal fluorescence microscopy [7]: localized throughout the cytoplasm
presence in healthy (control) cells, confocal fluorescence microscopy [7]: not present
binding to protein expressed in cancer cell lines (HSPC194, about 15 kDa) (HSPC194): binds specifically to a single protein
